Experimental data: US9181181B2, “2-substituted-3-phenylpropionic acid derivatives and their use in the treatment of inflammatory bowel disease” (Albireo AB, priority 2007, dated 2015)

Assays:
[1] = molecular target: human PPARalpha (Homo sapiens (Human), UniProt Q07869); experiment: Transactivation (reporter gene) assay, GAL4-PPARalpha LBD in U-2 OS cells; type: cell-based; conditions: 40 h incubation, 16 μM ETYA as 100% control, read-out: EC50 PPARα
Description: (§1) Transactivation Assay Expression vectors were prepared by inserting the ligand binding domain cDNA (complementary DNA) of human PPARalpha (amino acid 168-468) and human PPARgamma (amino acid 205-505), 3′ to and in frame with, the yeast GAL4 transcription factor DNA binding domain and the nuclear localization signal from the T-antigen of Polyoma Virus into the mammalian expression vector pSGS (Stratagene). The resulting expression vectors pSGGAL-PPARalpha and pSGGAL-PPARgamma were used in co-transfection experiments together with a modified pGL3 promoter plasmid (Promega) containing five copies of the UAS GAL4 recognition site. 2.5 μg pSGGAL-PPARalpha or pSGGAL-PPARgamma were mixed with 25 μg pGL3p […] and 22.5 μg pBluescript (Stratagene) in 0.95 mL ice cold PBS containing between 9-12 million U-2 OS (human osteosarcoma) cells. The cell/DNA mixture was incubated on ice for 5 minutes and then divided between two 0.4 cm cuvettes and electroporated at 960 μF, 230 V using a BioRad electroporator. The two electroporation mixes were combined in assay medium [Dulbecco's Modified Eagle Medium w/o phenol red, (Gibco 11880-028) including 10% FBS (Foetal Bovine Serum), 1% PEST (Penicillin & Streptomycin), 20 mM Hepes, 2 mM L-Glutamine and 0.36% Glucose (Gibco 31966-021)] at 0.32 million cells/ml. 25 μl diluted, electroporated cells, were seeded into 384-well plates and allowed to adhere for 3-4 h at 37° C., 5% CO2 in a cell culture incubator. Test compounds in DMSO were diluted 40 fold in assay medium. 7 μl of diluted compound was added to the adhered electroporated cells and incubation was continued for 40 h in a cell culture incubator. Cells were lysed by adding 32 μl/well LucLite (Packard) and incubated at room temperature for 15 minutes. Luciferase activity was measured using a luminometry protocol on a Wallac Victor2 plate reader. 16 μM ETYA was used as the 100% control for humanPPARalpha activity and 16 μM Pioglitazone was used as the 100% control for humanPPARgamma activity. In Vivo Assay Determination of Plasma Clearance and Oral Bioavailability in Hamster or Mouse

[2] = molecular target: human PPARgamma (Homo sapiens (Human), UniProt P37231); experiment: Transactivation (reporter gene) assay, GAL4-PPARgamma LBD in U-2 OS cells; type: cell-based; conditions: 40 h incubation, 16 μM Pioglitazone as 100% control, read-out: EC50 PPARγ
Sequence of human PPARgamma (P37231 205-505): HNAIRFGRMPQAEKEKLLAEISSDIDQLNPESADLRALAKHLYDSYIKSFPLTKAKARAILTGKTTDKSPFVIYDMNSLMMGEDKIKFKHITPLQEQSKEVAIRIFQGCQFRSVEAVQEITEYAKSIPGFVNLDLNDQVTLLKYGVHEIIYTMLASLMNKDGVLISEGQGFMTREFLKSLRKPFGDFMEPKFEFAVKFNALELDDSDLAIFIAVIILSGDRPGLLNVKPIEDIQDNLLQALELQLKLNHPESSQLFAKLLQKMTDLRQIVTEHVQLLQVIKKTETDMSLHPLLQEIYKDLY
Description: as §1

Sequence of human PPARalpha (Q07869 168-468): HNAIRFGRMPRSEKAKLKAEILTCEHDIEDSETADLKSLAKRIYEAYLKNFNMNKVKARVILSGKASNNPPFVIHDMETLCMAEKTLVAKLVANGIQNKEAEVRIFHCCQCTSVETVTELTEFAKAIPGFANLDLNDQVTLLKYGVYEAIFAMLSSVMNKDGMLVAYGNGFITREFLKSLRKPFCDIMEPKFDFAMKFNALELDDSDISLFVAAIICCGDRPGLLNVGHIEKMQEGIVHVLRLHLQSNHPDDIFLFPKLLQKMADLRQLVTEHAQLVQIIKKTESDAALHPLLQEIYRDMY

| Structure (SMILES) | EC50 [1] | EC50 [2] |
| --- | --- | --- |
| Cc1oc(-c2ccccc2)nc1CCOC(=O)c1ccc(CC(SCCc2ccc(F)cc2)C(=O)O)cc1 (single isomer, unassigned) [Example 20, 4-{(−)-2-Carboxy-2-[2-(4-fluoro-phenyl)-ethylsulfanyl]-ethyl}-benzoic acid 2-(5-methyl-2-phenyl-oxazol-4-yl)-ethyl ester] | 840 nM | 72 nM |
| Cc1oc(-c2ccccc2)nc1CC(=O)OCc1ccc(CC(SCCc2ccc(F)cc2)C(=O)O)cc1 (single isomer, unassigned; (-)) [Example 19, (−)-2-[2-(4-Fluoro-phenyl)-ethylsulfanyl]-3-{4-[2-(5-methyl-2-phenyl-oxazol-4-yl)-acetoxymethyl]-phenyl}-propionic acid] | 72 nM | 470 nM |
| O=C(Cc1ccc(CC(SCCc2ccc(F)cc2)C(=O)O)cc1)OCc1ccc(C(F)(F)F)cc1 (stereo not drawn) [Example 3, 2-[2-(4-Fluoro-phenyl)-ethylsulfanyl]-3-[4-(4-trifluoromethyl-benzyloxycarbonylmethyl)-phenyl]-propionic acid] | 56 nM | 1700 nM |
| CS(=O)(=O)Oc1ccc(COC(=O)Cc2ccc(CC(SCCc3ccc(F)cc3)C(=O)O)cc2)cc1 (stereo not drawn) [Example 4, 2-[2-(4-Fluoro-phenyl)-ethylsulfanyl]-3-[4-(4-methanesulfonyloxy-benzyloxycarbonylmethyl)-phenyl]-propionic acid] | 1400 nM | – |
| CS(=O)(=O)Oc1ccc(CC(=O)OCCc2ccc(CC(SCCc3ccc(F)cc3)C(=O)O)cc2)cc1 (stereo not drawn) [Example 5, 2-[2-(4-Fluoro-phenyl)-ethylsulfanyl]-3-(4-{2-[2-(4-methanesulfonyloxy-phenyl)-acetoxy]-ethyl}-phenyl)-propionic acid] | 200 nM | 6000 nM |
| CS(=O)(=O)Oc1ccc(CC(=O)OCCCc2ccc(CC(SCCc3ccc(F)cc3)C(=O)O)cc2)cc1 (stereo not drawn) [Example 6, 2-[2-(4-Fluoro-phenyl)-ethylsulfanyl]-3-(4-{3-[2-(4-methanesulfonyloxy-phenyl)-acetoxy]-propyl}-phenyl)-propionic acid] | 330 nM | 18000 nM |
| CC(C(=O)OCc1ccc(CC(SCCc2ccc(F)cc2)C(=O)O)cc1)c1ccccc1 (stereo not drawn) [Example 7, 2-[2-(4-Fluoro-phenyl)-ethylsulfanyl]-3-[4-(2-phenyl-propionyloxymethyl)-phenyl]-propionic acid] | 18000 nM | 1700 nM |
| COc1ccc(CC(=O)OCc2ccc(CC(SCCc3ccc(F)cc3)C(=O)O)cc2)cc1 (stereo not drawn) [Example 8] | 270 nM | 2500 nM |
| CC(C)Cc1ccc(C(C)C(=O)OCc2ccc(CC(SCCc3ccc(F)cc3)C(=O)O)cc2)cc1 (stereo not drawn) [Example 9, 2-[2-(4-Fluoro-phenyl)-ethylsulfanyl]-3-{4-[2-(4-isobutyl-phenyl)-propionyloxymethyl]-phenyl}-propionic acid] | 1500 nM | 930 nM |
| CN1CCN(CC(=O)OCc2ccc(CC(SCCc3ccc(F)cc3)C(=O)O)cc2)CC1 (stereo not drawn) [Example 11, 2-[2-(4-Fluoro-phenyl)-ethylsulfanyl]-3-{4-[2-(4-methyl-piperazin-1-yl)-acetoxymethyl]-phenyl}-propionic acid] | 150 nM | 810 nM |
| O=C(OCc1nc(-c2ccccc2)oc1C(F)(F)F)c1ccc(CC(SCCc2ccc(F)cc2)C(=O)O)cc1 (stereo not drawn) [Example 12, 4-{2-Carboxy-2-[2-(4-fluoro-phenyl)-ethylsulfanyl]-ethyl}-benzoic acid 2-phenyl-5 trifluoromethyl-oxazol-4-ylmethyl ester] | – | 58 nM |
| O=C(OCc1ccc(CC(SCCc2ccc(F)cc2)C(=O)O)cc1)c1nc(-c2ccccc2)oc1C(F)(F)F (stereo not drawn) [Example 13, 2-Phenyl-5-trifluoromethyl-oxazole-4-carboxylic acid 4-{2-carboxy-2-[2-(4-fluoro-phenyl)-ethylsulfanyl]-ethyl}-benzyl ester] | 12 nM | 30 nM |
| Cc1oc(-c2ccccc2)nc1CCOC(=O)c1ccc(CC(SCCc2ccc(F)cc2)C(=O)O)cc1 (stereo not drawn) [Example 14, 4-{2-Carboxy-2-[2-(4-fluoro-phenyl)-ethylsulfanyl]-ethyl}-benzoic acid 2-(5-methyl-2 phenyl-oxazol-4-yl)-ethyl ester] | 1400 nM | 110 nM |
| Cc1oc(-c2ccccc2)nc1CC(=O)OCc1ccc(CC(SCCc2ccc(F)cc2)C(=O)O)cc1 (stereo not drawn) [Example 15, 2-[2-(4-Fluoro-phenyl)-ethylsulfanyl]-3-{4-[2-(5-methyl-2-phenyl-oxazol-4-yl)acetoxymethyl]-phenyl}-propionic acid] | 130 nM | 840 nM |
| CS(=O)(=O)Oc1ccc(COC(=O)c2ccc(CC(SCCc3ccc(F)cc3)C(=O)O)cc2)cc1 (stereo not drawn) [Example 16, 4-{2-Carboxy-2-[2-(4-fluoro-phenyl)-ethylsulfanyl]-ethyl}-benzoic acid 4-methanesulfonyloxy-benzyl ester] | 1100 nM | – |
| O=C(Cc1ccc(CC(C(=O)O)S(=O)(=O)CCc2ccc(F)cc2)cc1)OCc1ccc(C(F)(F)F)cc1 (stereo not drawn) [Example 17, 2-[2-(4-Fluoro-phenyl)-ethanesulfonyl]-3-[4-(4-trifluoromethyl-benzyloxycarbonylmethyl)-phenyl]-propionic acid] | 4400 nM | 18000 nM |
| CS(=O)(=O)Oc1ccc(CCSC(=O)c2ccc(CC(SCCc3ccc(F)cc3)C(=O)O)cc2)cc1 (stereo not drawn) [Example 18, 2-[2-(4-Fluoro-phenyl)-ethylsulfanyl]-3-{4-[2-(4-methanesulfonyloxy-phenyl)-ethylsulfanylcarbonyl]-phenyl}-propionic acid] | 3400 nM | – |
| CCO[C@@H](Cc1ccc(OC(=O)Cc2ccc(NC(=O)OC(C)(C)C)cc2)cc1)C(=O)O [Example 22, (S)-3-{4-[2-(4-tert-Butoxycarbonylamino-phenyl)-acetoxy]-phenyl}-2-ethoxy-propionic acid] | 18000 nM | 18000 nM |
| CCOC(Cc1ccc(OC(=O)Cc2nc(-c3ccccc3)oc2C)c(Cc2ccccc2)c1)C(=O)O (stereo not drawn) [Example 23, 3-{3-Benzyl-4-[2-(5-methyl-2-phenyl-oxazol-4-yl)-acetoxy]-phenyl}-2-ethoxy-propionic acid] | – | 53 nM |
| CCOC(Cc1ccc(OC(=O)Cc2ccc(NC(=O)OC(C)(C)C)cc2)c(Cc2ccccc2)c1)C(=O)O (stereo not drawn) [Example 24, 3-{3-Benzyl-4-[2-(4-tert-butoxycarbonylamino-phenyl)-acetoxy]-phenyl}-2-ethoxy-propionic acid] | – | 5.2 nM |
| CCOC(Cc1ccc(OC(=O)Cc2nc(-c3ccccc3)oc2C)c(C)c1)C(=O)O (stereo not drawn) [Example 25, 2-Ethoxy-3-{3-methyl-4-[2-(5-methyl-2-phenyl-oxazol-4-yl)-acetoxy]-phenyl}-propionic acid] | – | 43 nM |
| CCOC(Cc1ccc(OC(=O)Cc2ccc(NC(=O)OC(C)(C)C)cc2)c(C)c1)C(=O)O (stereo not drawn) [Example 26, 3-{4-[2-(4-tert-Butoxycarbonylamino-phenyl)-acetoxy]-3-methyl-phenyl}-2-ethoxy-propionic acid] | – | 73 nM |
| CCOC(Cc1ccc(C(=O)OCc2ccc(OS(C)(=O)=O)cc2)cc1)C(=O)O (stereo not drawn) [Example 27, 4-(2-Carboxy-2-ethoxy-ethyl)-benzoic acid 4-methanesulfonyloxy-benzyl ester] | – | 1400 nM |
| O=C(Cc1cccc(SCc2ccccc2C(=O)O)c1)OCc1ccc(C(F)(F)F)cc1 [Example 28, 2-[3-(4-Trifluoromethyl-benzyloxycarbonylmethyl)-phenylsulfanylmethyl]-benzoic acid] | 1300 nM | 2500 nM |
